Measured values published in USRE48461E1, “Modulation of androgen receptor expression” (Ionis Pharmaceuticals, Inc., priority 2012, dated 2021).

Tests used:
Format in all cases: cell-based, human
[1] = tested on: prostate-specific antigen (PSA) mRNA; assay: PSA mRNA levels in LMR20 cells; settings: with or without DHT/R1881
Protocol: LMR20 cells were plated at 1,500 cells per well in phenol red-free medium with CSS. […] Results are presented in Tables 43-45 as mRNA levels expressed as a percentage of the baseline values. mRNA levels may be lowered or increased after treatment.

full length AR mRNA = assay: Full-length AR RNA in 22RV1 cells (complete, CSS+DHT medium); settings: RNAiMax, 48 hrs
Protocol: (§1) Cells were plated at 1,000 cells per well. […] After an incubation period of 48 hrs, RNA levels of full length AR, the V7 variant, PSA and TMPRSS2 were measured.
(§2) After an incubation period of 48 hrs, RNA levels of full length AR, the V7 variant, PSA and TMPRSS2 were measured.
(§3) Cells were plated at 2,000 cells per well and cultured in CSS media for 16 hours. […] After 4 hrs, 1 nM DHT was added. […] After an incubation period of 48 hrs, RNA levels of AR, AR V7 variant, PSA and TMPRSS2 were measured.

[2] = tested on: prostate-specific antigen (PSA) mRNA; assay: Time-course PSA expression in C4-2B cells
Protocol: C4-2B cells were plated at 1,000 cells per well in complete medium. […] ISIS 549148 was included as a negative control. […] After a treatment period of 8 hours, 24 hours, and 48 hours, AR expression was measured with primer probe set hAR-LTS00943. Results are presented in Tables 70-72 as percent expression of AR, relative to non-treated cells.
Expression analysis of prostate-specific antigen (PSA) and TMPRSS2 were also analyzed. Results are presented in Tables 73-75 as percent inhibition of PSA expression and Tables 76-78 as percent inhibition of TMPRSS2 expression, relative to non-treated cells.

AR mRNA = assay: AR RNA expression in C4-2B cells (complete, CSS+DHT medium; Example 30); settings: 48 hrs
Protocol: (§4) Cells were plated at 1,000 cells per well. […] ISIS 549148 was included as a negative control. […] After an incubation period of 48 hrs, RNA levels of AR, PSA and TMPRSS2 were measured.
(§5) Cells were plated at 2,000 cells per well and cultured in CSS media with 1 nM DHT. […] ISIS 549148 was included as a negative control. […] After an incubation period of 48 hrs, RNA levels of AR, PSA and TMPRSS2 were measured. In the absence of DHT, AR expression in C4-2 cells was 188%, PSA expression was 43% and TMPRSS2 expression was 27% compared to the untreated control.

TMPRSS2 mRNA [3] = assay: TMPRSS2 expression in C4-2B cells (Example 30); settings: 48 hrs
Protocol: as §4, §5

TMPRSS2 mRNA [4] = assay: TMPRSS2 expression in 22RV1 cells; settings: RNAiMax, 48 hrs
Protocol: as §1, §2, §3

LNCaP cells = assay: LNCaP cell proliferation (complete or CSS+DHT medium); settings: 5 days; for Proliferation (% untreated control) in LNCaP cells cultured in CSS + DHT medium: CSS + 1 nM DHT medium
Protocol: After a treatment period of 5 days in complete medium or CSS+1 nM DHT medium, the proliferative capacity of the cancer cells was measured with using CellTiter 96® AQueous One Solution or CellTiter-Glo® solution Cell Proliferation kit (Promega), following the manufacturer's instructions. […] Treatment with ISIS oligonucleotides in CSS+DHT medium reduced the proliferative capacity to a greater extent than treatment with MVD-3100. The proliferative capacity of cells cultured in CSS medium without DHT is 17% of untreated control levels.

For “TGATTTAATGGTTGCA [ISIS 569236] (cEt/MOE gapmer chemistry, further chemistry not given here) [targets intron 1]”, the “PSA mRNA levels in LMR20 cells” value [1] was “reduced PSA levels and TMPRSS2 more extensively than the LNA gapmer ISIS 554221 or MDV3100”, the “Percent inhibition of full-length AR” value (full length AR mRNA; CSS + DHT medium, 1.34 nM) was 59% and the “Percent inhibition of full-length AR” value (full length AR mRNA; CSS + DHT medium, 4.0 nM) was 89%. The “Percent inhibition of full-length AR” value (full length AR mRNA; CSS + DHT medium, 13.4 nM) was 97%, the “Percent inhibition of full-length AR” value (full length AR mRNA; complete medium, 1.34 nM) was 17% and the “Percent inhibition of full-length AR” value (full length AR mRNA; complete medium, 4.0 nM) was 15%. For the same sequence, the “Percent inhibition of full-length AR” value (full length AR mRNA; complete medium, 13.4 nM) was 37%, the “Percent inhibition of full-length AR” value (full length AR mRNA; complete medium, 40 nM) was 71% and the “Percent inhibition of PSA expression compared to the control group in 8 hours” value (“Percent inhibition … in 8 hours” for short) ([2]; 0.04 μM) was 18%. For the same sequence, the “Percent inhibition of PSA expression compared to the control group in 24 hours” value (“Percent inhibition … in 24 hours” for short) ([2]; 0.04 μM) was 10%, the “Percent inhibition of PSA expression compared to the control group in 48 hours” value (from here on “Percent inhibition … in 48 hours”) ([2]; 0.04 μM) was 4% and the “Percent inhibition … in 8 hours” value ([2]; 0.2 μM) was 3%. The “Percent inhibition … in 24 hours” value ([2]; 0.2 μM) was 34%, the “Percent inhibition … in 48 hours” value ([2]; 0.2 μM) was 45% and the “Percent inhibition … in 8 hours” value ([2]; 1 μM) was 0%. The “Percent inhibition … in 24 hours” value ([2]; 1 μM) was 44%, the “Percent inhibition … in 48 hours” value ([2]; 1 μM) was 68% and the “Percent inhibition … in 8 hours” value ([2]; 5.0 μM) was 0%. For the same sequence, the “Percent inhibition … in 24 hours” value ([2]; 5.0 μM) was 54%, the “Percent inhibition … in 48 hours” value ([2]; 5.0 μM) was 76% and the PSA expression ([2]; time course) was “reduced PSA and TMPRSS2 expression in the cells relative to the control set at the 24 hr and 48 hr time points”. The “Percent expression of AR” value (AR mRNA; CSS + DHT medium, 0.04 μM) was 67%, the “Percent expression of AR” value (AR mRNA; CSS + DHT medium, 0.2 μM) was 49% and the “Percent expression of AR” value (AR mRNA; CSS + DHT medium, 1 μM) was 24%. For the same sequence, the “Percent expression of AR” value (AR mRNA; CSS + DHT medium, 5.0 μM) was 19%, the “Percent expression of AR” value (AR mRNA; complete medium, 0.04 μM) was 61% and the “Percent expression of AR” value (AR mRNA; complete medium, 0.2 μM) was 23%. For the same sequence, the “Percent expression of AR” value (AR mRNA; complete medium, 1 μM) was 20%, the “Percent expression of AR” value (AR mRNA; complete medium, 5.0 μM) was 16% and the “Percent inhibition of TMPRSS2 expression” value (TMPRSS2 mRNA [3]; CSS + DHT medium, 0.04 μM) was 0%. The “Percent inhibition of TMPRSS2 expression” value (TMPRSS2 mRNA [3]; CSS + DHT medium, 0.2 μM) was 6%, the “Percent inhibition of TMPRSS2 expression” value (TMPRSS2 mRNA [3]; CSS + DHT medium, 1 μM) was 43% and the “Percent inhibition of TMPRSS2 expression” value (TMPRSS2 mRNA [3]; CSS + DHT medium, 5.0 μM) was 59%. The “Percent inhibition of TMPRSS2 expression” value (TMPRSS2 mRNA [3]; complete medium, 0.04 μM) was 33%, the “Percent inhibition of TMPRSS2 expression” value (TMPRSS2 mRNA [3]; complete medium, 0.2 μM) was 59% and the “Percent inhibition of TMPRSS2 expression” value (TMPRSS2 mRNA [3]; complete medium, 1 μM) was 69%. For the same sequence, the “Percent inhibition of TMPRSS2 expression” value (TMPRSS2 mRNA [3]; complete medium, 5.0 μM) was 73%, the “Percent inhibition of TMPRSS2 expression” value (TMPRSS2 mRNA [4]; CSS + DHT medium, 1.34 nM) was 27% and the “Percent inhibition of TMPRSS2 expression” value (TMPRSS2 mRNA [4]; CSS + DHT medium, 4.0 nM) was 50%. For the same sequence, the “Percent inhibition of TMPRSS2 expression” value (TMPRSS2 mRNA [4]; CSS + DHT medium, 13.4 nM) was 75%, the “Percent inhibition of TMPRSS2 expression” value (TMPRSS2 mRNA [4]; complete medium, 1.34 nM) was 0% and the “Percent inhibition of TMPRSS2 expression” value (TMPRSS2 mRNA [4]; complete medium, 4.0 nM) was 13%. The “Percent inhibition of TMPRSS2 expression” value (TMPRSS2 mRNA [4]; complete medium, 13.4 nM) was 21%, the “Percent inhibition of TMPRSS2 expression” value (TMPRSS2 mRNA [4]; complete medium, 40 nM) was 36% and the “Proliferation (% untreated control) in LNCaP cells cultured in CSS + DHT medium” value (LNCaP cells; 0.04 μM) was 95 % untreated control. For the same sequence, the “Proliferation (% untreated control) in LNCaP cells cultured in CSS + DHT medium” value (LNCaP cells; 0.2 μM) was 99 % untreated control, the “Proliferation (% untreated control) in LNCaP cells cultured in CSS + DHT medium” value (LNCaP cells; 1 μM) was 54 % untreated control and the “Proliferation (% untreated control) in LNCaP cells cultured in CSS + DHT medium” value (LNCaP cells; 5.0 μM) was 17 % untreated control. For the same sequence, the “proliferation of LNCaP cells” value (LNCaP cells; complete medium or CSS+1 nM DHT) was “reduced proliferation of the cells in a dose dependent compared to the control”, the “Proliferation (% untreated control) in LNCaP cells cultured in complete medium” value (LNCaP cells; 0.04 μM) was 100 % untreated control and the “Proliferation (% untreated control) in LNCaP cells cultured in complete medium” value (LNCaP cells; 0.2 μM) was 85 % untreated control. For the same sequence, the “Proliferation (% untreated control) in LNCaP cells cultured in complete medium” value (LNCaP cells; 1 μM) was 68 % untreated control and the “Proliferation (% untreated control) in LNCaP cells cultured in complete medium” value (LNCaP cells; 5.0 μM) was 54 % untreated control.
